Measured values from US5194446A, “Compounds having one or more aminosulfaonyloxy radicals useful as pharmaceuticals” (A. H. Robins Company, Incorporated, priority 1991, dated 1993).

Tests used:
[1] = hygroscopicity observation; assay type: physicochemical; settings: white crystals
[2] = system: adjuvant-induced arthritis test model in rats; assay: adjuvant-induced arthritis test model in rats; assay type: in vivo, rat (adult, female Lewis)
Protocol: The test utilized to evidence antiarthritic properties of the compounds of Formula I is an adjuvant-induced arthritis test model in rats. Adjuvant arthritis was induced in adult, female Lewis rats as described by Walz et al. J. Pharmac. Exp. Ther. 178:223-231 (1971). Briefly, arthritis was induced in the rats by injection of 0.05 ml of a 1.5% suspension of killed Mycobacterium Butyricum into the right rear foot pad of each rat. Eighteen days later, those rats having a left hind paw volume (measured by mercury displacement up to a reference tatoo mark placed on the leg on Day 0) of 2.4 ml or greater were randomly assigned to treatment groups. The test, reference and control articles (as solutions or suspensions in 0.5% Tween 80) were given by gavage, beginning on Day 18 after adjuvant administration and for 5 days a week (Monday through Friday) through Day 49. Paw volumes were recorded on days 18, 29 and 50 after adjuvant injection. On Day 50, the rats were killed (carbon dioxide) and the uninjected hind limb was x-rayed and scored for bone damage on an arbitrary 1 (no damage) to 10 (maximum damage) scale.
Data collected for hind paw volumes and bone damage were analyzed by the Dunnett's t-test [Dunnett, C. W., J. Amer. Stat. Assoc., 50:1096-1121 (1955)], comparing a positive control group with several treated groups.

[3] = system: seventeen (17) days-old chick embryo calvaria; assay: bone resorption in vitro induced by parathyroid hormone (PTH); assay type: cell-based; settings: Gallus gallus; for inhibition at 100 µM: compound 10^-4 M; for inhibition at 10 µM: compound 10^-5 M; for inhibition at 1 µM: compound 10^-6 M
Protocol: In order to determine the effectiveness of Formula I compounds in the treatment and/or prevention of osteoporosis in mammalian species an in vitro experimental procedure was utilized to measure bone resorption. The procedure utilized was as follows.
Bone resorption in vitro was measured essentially as outlined by Hall and Kenny (Pharmacology 30:339-347, 1985), except however, seventeen (17) days-old chick embryo calvaria were utilized instead of mice calvaria. Resorption is defined as the amount of calcium (mg/ml) in the medium of vehicle-treated cultures. The effects of the Formula I test compounds were determined by monitoring the effect on calcium concentrations in presence of drug relative to control calcium concentrations at a particular PTH (parathyroid hormone) concentration. The % inhibition of resorption induced by parathyroid hormone by Formula I compounds was calculated as follows: [formula] where Ca (PTH)=Ca (PTH)-Ca (Vehicle medium), and
Ca (PTH+Formula I compound)=Ca (PTH+Formula I compound)

NS(=O)(=O)OCCN1CCCC1=O [Example 63, 1-[2-[(Aminosulfonyl)oxy]ethyl]-2-pyrrolidinone]
hygroscopicity [1]: slightly hygroscopic

COc1ccccc1OCC(COS(N)(=O)=O)OS(N)(=O)=O (centres unmarked) [Example 3, 1-[(2-Methoxyphenoxy)methyl]-1,2-ethanediol bisulfamate (ester)]
reduction in paw edema, significance ([2]; 1 mg/kg to 100 mg/kg by gavage, Dunnett's t-test): significant
bone damage score ([2]; 1 (no damage) to 10 (maximum damage) scale, x-ray of uninjected hind limb, Day 50, dosage range 1 mg/kg to 100 mg/kg by gavage, controls scored 8 to 9): 5.4-5.9
reduction in bone damage, significance ([2]; vs. controls, 1 mg/kg to 100 mg/kg by gavage, Dunnett's t-test): significant
inhibition at 100 µM ([3]; PTH 10^-7 M): 10%
inhibition at 100 µM ([3]; PTH 10^-8 M): 40.5%
inhibition at 100 µM ([3]; PTH 10^-9 M): 66.5%
inhibition at 100 µM ([3]; PTH 10^-10 M): 100%
inhibition at 10 µM ([3]; PTH 10^-7 M): 21%
inhibition at 10 µM ([3]; PTH 10^-8 M): 37%
inhibition at 10 µM ([3]; PTH 10^-9 M): 86%
inhibition at 10 µM ([3]; PTH 10^-10 M): 100%
inhibition at 1 µM ([3]; PTH 10^-7 M): 21%
inhibition at 1 µM ([3]; PTH 10^-8 M): 29%
inhibition at 1 µM ([3]; PTH 10^-9 M): 100%
inhibition at 1 µM ([3]; PTH 10^-10 M): 100%
inhibition at 0.1 µM ([3]; compound 10^-7 M, PTH 10^-8 M): 23%
